≈ marks a conversion by molar mass, not a printed value. Blank lines part the entries; values can stand above or below the compound they belong to.
Experiments:
Assay in all cases: ≥ marks a high value that may be exact or a test limit, other limits are often not marked, values filed in µg/mL are converted to µM
[1] = system: Pseudomonas aeruginosa H1001
[2] = system: Candida albicans
[3] = system: Enterococcus faecalis ATCC 29212
[4] = system: Escherichia coli UB1005
[5] = system: Pseudomonas aeruginosa H103
[6] = system: Salmonella enterica serovar Typhimurium
[7] = system: Staphylococcus aureus ATCC 25923
[8] = system: Staphylococcus epidermidis
[9] = system: Escherichia coli ATCC 25922
[10] = system: Salmonella enterica subsp. enterica serovar Pullorum C79-13
[11] = system: Salmonella enterica subsp. enterica serovar Typhimurium C77-31
[12] = system: Staphylococcus aureus ATCC 29213
[13] = system: Staphylococcus epidermidis ATCC 12228
[14] = system: Bacillus subtilis 168
[15] = system: Candida albicans F7-39/IDE99
[16] = system: Escherichia coli B
[17] = system: Micrococcus luteus CCM 144
[18] = system: Pseudomonas aeruginosa
[19] = system: Staphylococcus aureus
[20] = system: Escherichia coli BL21AI
[21] = system: Micrococcus luteus ATCC 10240
[22] = system: Micrococcus luteus
[23] = system: Pseudomonas aeruginosa ATCC 15692
[24] = system: Saccharomyces cerevisiae

Structure (SMILES): NCCCC[C@H](NC(=O)[C@H](CCCCN)NC(=O)[C@H](Cc1c[nH]c2ccccc12)NC(=O)[C@H](CCCCN)NC(=O)[C@H](Cc1c[nH]c2ccccc12)NC(=O)[C@H](Cc1c[nH]c2ccccc12)NC(=O)[C@@H](N)CCCCN)C(N)=O [KWWKWKK]
MIC [1]: ≥ 229 µM

Structure (SMILES): CC(C)C[C@H](NC(=O)[C@H](Cc1ccccc1)NC(=O)[C@H](CCCCN)NC(=O)[C@H](Cc1c[nH]c2ccccc12)NC(=O)[C@H](Cc1c[nH]c2ccccc12)NC(=O)[C@H](CCCN=C(N)N)NC(=O)[C@H](CCCCN)NC(=O)[C@H](CC(C)C)NC(=O)[C@@H](N)CCCN=C(N)N)C(=O)O [RLKRWWKFL]
MIC [2]: 9.8 µM (≈ 13.1 µg/mL)
MIC [3]: 9.8 µM (≈ 13.1 µg/mL)
MIC [4]: 1.2 µM (≈ 1.6 µg/mL)
MIC [5]: 9.8 µM (≈ 13.1 µg/mL)
MIC [6]: 4.9 µM (≈ 6.53 µg/mL)
MIC [7]: 2.4 µM (≈ 3.2 µg/mL)
MIC [8]: 1.2 µM (≈ 1.6 µg/mL)

Structure (SMILES): NCCCC[C@H](NC(=O)CNC(=O)[C@H](CC(N)=O)NC(=O)[C@H](CCCCN)NC(=O)[C@H](Cc1c[nH]c2ccccc12)NC(=O)[C@H](CCCCN)NC(=O)[C@H](Cc1c[nH]c2ccccc12)NC(=O)[C@H](CCCCN)NC(=O)[C@@H](N)Cc1c[nH]c2ccccc12)C(=O)N[C@@H](Cc1c[nH]c2ccccc12)C(=O)N[C@@H](CCCCN)C(=O)N[C@@H](Cc1c[nH]c2ccccc12)C(=O)N[C@@H](CCCCN)C(=O)N[C@@H](Cc1c[nH]c2ccccc12)C(=O)O [WKWKWKNGKWKWKW]
MIC [3]: 16 µM (≈ 33.2 µg/mL)
MIC [9]: 2 µM (≈ 4.15 µg/mL)
MIC [10]: 4 µM (≈ 8.3 µg/mL)
MIC [11]: 8 µM (≈ 16.6 µg/mL)
MIC [12]: 4 µM (≈ 8.3 µg/mL)
MIC [13]: 32 µM (≈ 66.4 µg/mL)

Structure (SMILES): CC[C@H](C)[C@H](NC(=O)[C@@H](N)Cc1ccccc1)C(=O)N[C@@H](CCCN=C(N)N)C(=O)N[C@@H](Cc1c[nH]c2ccccc12)C(=O)N[C@@H](CCCN=C(N)N)C(=O)N[C@@H](Cc1ccccc1)C(=O)N[C@@H](CCCN=C(N)N)C(=O)N[C@@H](Cc1c[nH]c2ccccc12)C(=O)N[C@@H](Cc1c[nH]c2ccccc12)C(=O)N[C@@H](CCCN=C(N)N)C(=O)N[C@@H](Cc1c[nH]c2ccccc12)C(=O)N[C@@H](CCCN=C(N)N)C(=O)N[C@@H](CCCN=C(N)N)C(N)=O [FIRWRFRWWRWRR]
MIC [1]: 2.85 µM (≈ 6 µg/mL)

Structure (SMILES): CC[C@H](C)[C@H](NC(=O)[C@H](Cc1ccc(O)cc1)NC(=O)[C@@H](NC(=O)[C@@H]1CCCN1C(=O)[C@H](CCCN=C(N)N)NC(=O)[C@H](CC(N)=O)NC(=O)[C@H](CC(N)=O)NC(=O)CN)C(C)C)C(=O)N[C@@H](C)C(=O)N[C@@H](CCC(N)=O)C(=O)N1CCC[C@H]1C(=O)N[C@@H](CCCN=C(N)N)C(=O)N1CCC[C@H]1C(=O)N1CCC[C@H]1C(=O)N[C@@H](Cc1cnc[nH]1)C(=O)N1CCC[C@H]1C(=O)N[C@@H](C)C(=O)N[C@@H](CC(C)C)C(N)=O [GNNRPVYIAQPRPPHPAL]
MIC [20]: ≥ 62.6 µM
MIC [21]: ≥ 62.6 µM

Structure (SMILES): CC[C@H](C)[C@H](NC(=O)[C@H](CCCN=C(N)N)NC(=O)[C@H](CCCN=C(N)N)NC(=O)[C@@H]1CCCN1C(=O)[C@@H]1CCCN1C(=O)[C@H](CCCN=C(N)N)NC(=O)[C@@H]1CCCN1C(=O)[C@H](CCCN=C(N)N)NC(=O)[C@@H]1CCCN1C(=O)[C@H](CC(C)C)NC(=O)[C@H](Cc1ccc(O)cc1)NC(=O)[C@@H]1CCCN1C(=O)[C@@H]1CCCN1C(=O)[C@H](CCCCN)NC(=O)[C@H](CC(=O)O)NC(=O)[C@@H](N)C(C)C)C(=O)N[C@@H](Cc1ccc(O)cc1)C(=O)N[C@@H](CC(N)=O)C(=O)N[C@@H](CCCN=C(N)N)C(=O)N[C@@H](CC(N)=O)C(=O)O [VDKPPYLPRPRPPRRIYNRN]
MIC [20]: 3.19 µM (≈ 8 µg/mL)
MIC [21]: 6.39 µM (≈ 16 µg/mL)

Structure (SMILES): CC[C@H](C)[C@H](NC(=O)[C@H](CCCN=C(N)N)NC(=O)[C@H](CCCN=C(N)N)NC(=O)[C@@H]1CCCN1C(=O)[C@H](Cc1c[nH]c2ccccc12)NC(=O)[C@H](CCCN=C(N)N)NC(=O)[C@@H]1CCCN1C(=O)[C@H](CCCN=C(N)N)NC(=O)[C@@H]1CCCN1C(=O)[C@H](CC(C)C)NC(=O)[C@H](Cc1ccc(O)cc1)NC(=O)[C@@H]1CCCN1C(=O)[C@@H]1CCCN1C(=O)[C@H](CCCCN)NC(=O)[C@H](CC(=O)O)NC(=O)[C@@H](N)C(C)C)C(=O)N[C@@H](Cc1ccc(O)cc1)C(=O)N[C@@H](CC(N)=O)C(=O)N[C@@H](CCCN=C(N)N)C(=O)NCC(=O)O [VDKPPYLPRPRWPRRIYNRG]
MIC [1]: 0.0591 µM (≈ 0.15 µg/mL)

Structure (SMILES): CC[C@H](C)[C@H](NC(=O)[C@@H]1CCCN1C(=O)[C@H](CCC(N)=O)NC(=O)[C@@H](NC(=O)[C@H](CC(C)C)NC(=O)[C@H](CCCCN)NC(=O)[C@@H]1CCCN1C(=O)CNC(=O)[C@H](CC(C)C)NC(=O)[C@H](CCC(N)=O)NC(=O)[C@H](CCSC)NC(=O)[C@H](C)NC(=O)[C@H](CCCCN)NC(=O)[C@H](CCCN=C(N)N)NC(=O)[C@H](CC(C)C)NC(=O)[C@@H](NC(=O)[C@H](CCCCN)NC(=O)CNC(=O)[C@H](Cc1ccccc1)NC(=O)[C@@H](NC(=O)[C@@H]1CCCN1C(=O)[C@H](CC(C)C)NC(=O)[C@H](Cc1c[nH]c2ccccc12)NC(=O)CN)[C@@H](C)O)[C@@H](C)CC)[C@@H](C)CC)C(=O)O [GWLPTFGKILRKAMQLGPKLIQPI]
MIC [9]: 1.41 µM (≈ 3.83 µg/mL)
MIC [22]: 1 µM (≈ 2.71 µg/mL)
MIC [23]: 11.3 µM (≈ 30.6 µg/mL)
MIC [24]: ≥ 32 µM
MIC [7]: 16 µM (≈ 43.3 µg/mL)

Continued, values first:

MIC [2]: 5.8 µM (≈ 7.63 µg/mL)
MIC [3]: 11.5 µM (≈ 15.1 µg/mL)
MIC [4]: 5.8 µM (≈ 7.63 µg/mL)
MIC [5]: 2.9 µM (≈ 3.82 µg/mL)
MIC [6]: 11.5 µM (≈ 15.1 µg/mL)
MIC [7]: 0.7 µM (≈ 0.921 µg/mL)
MIC [8]: 0.458 µM (≈ 0.603 µg/mL)
Structure (SMILES): CC[C@H](C)[C@H](NC(=O)[C@H](Cc1c[nH]c2ccccc12)NC(=O)[C@H](CCCCN)NC(=O)[C@H](CCCCN)NC(=O)[C@H](CC(C)C)NC(=O)[C@H](Cc1c[nH]c2ccccc12)NC(=O)[C@H](CCCCN)NC(=O)[C@@H](N)Cc1c[nH]c2ccccc12)C(=O)N[C@@H](CCCCN)C(=O)O [WKWLKKWIK]

MIC [2]: 19.1 µM (≈ 26.2 µg/mL)
MIC [3]: 9.6 µM (≈ 13.2 µg/mL)
MIC [4]: 2.4 µM (≈ 3.29 µg/mL)
MIC [5]: 19.1 µM (≈ 26.2 µg/mL)
MIC [6]: 9.6 µM (≈ 13.2 µg/mL)
MIC [7]: 2.4 µM (≈ 3.29 µg/mL)
MIC [8]: 1.2 µM (≈ 1.65 µg/mL)
Structure (SMILES): CC[C@H](C)[C@H](NC(=O)[C@H](Cc1c[nH]c2ccccc12)NC(=O)[C@H](Cc1c[nH]c2ccccc12)NC(=O)[C@H](CCCCN)NC(=O)[C@H](Cc1c[nH]c2ccccc12)NC(=O)[C@H](CCCN=C(N)N)NC(=O)[C@H](CCCN=C(N)N)NC(=O)[C@H](CCCCN)NC(=O)[C@@H](N)CC(C)C)C(=O)O [LKRRWKWWI]

MIC [14]: 1.3 µM (≈ 1.83 µg/mL)
MIC [15]: 7.3 µM (≈ 10.3 µg/mL)
MIC [16]: 3.7 µM (≈ 5.2 µg/mL)
MIC [17]: 1.5 µM (≈ 2.11 µg/mL)
MIC [18]: 51.7 µM (≈ 72.6 µg/mL)
MIC [19]: 10.6 µM (≈ 14.9 µg/mL)
Structure (SMILES): CC[C@H](C)[C@H](NC(=O)[C@H](C)NC(=O)CNC(=O)[C@H](Cc1c[nH]c2ccccc12)NC(=O)[C@H](CC(N)=O)NC(=O)[C@@H](N)CC(C)C)C(=O)N[C@@H](CC(C)C)C(=O)N[C@@H](CCCCN)C(=O)N[C@@H](Cc1cnc[nH]1)C(=O)N[C@H](C(=O)N[C@H](C(=O)N[C@@H](CCCCN)C(N)=O)[C@@H](C)CC)[C@@H](C)CC [LNWGAILKHIIK]

MIC [14]: 2.5 µM (≈ 3.73 µg/mL)
MIC [15]: 8 µM (≈ 11.9 µg/mL)
MIC [16]: 7.8 µM (≈ 11.6 µg/mL)
MIC [17]: 5 µM (≈ 7.45 µg/mL)
MIC [18]: 65 µM (≈ 96.9 µg/mL)
MIC [19]: 65 µM (≈ 96.9 µg/mL)
Structure (SMILES): CC[C@H](C)[C@H](NC(=O)[C@H](C)NC(=O)[C@H](CCCCN)NC(=O)[C@H](Cc1c[nH]c2ccccc12)NC(=O)[C@H](CC(N)=O)NC(=O)[C@@H](N)CCCCN)C(=O)N[C@@H](CC(C)C)C(=O)N[C@@H](CCCCN)C(=O)N[C@@H](Cc1cnc[nH]1)C(=O)N[C@H](C(=O)N[C@H](C(=O)N[C@@H](CCCCN)C(N)=O)[C@@H](C)CC)[C@@H](C)CC [KNWKAILKHIIK]

MIC [1]: 2.53 µM (≈ 4 µg/mL)
Structure (SMILES): CC[C@H](C)[C@H](NC(=O)[C@H](CCCCN)NC(=O)[C@H](Cc1c[nH]c2ccccc12)NC(=O)[C@H](CCCCN)NC(=O)[C@@H](N)CCCCN)C(=O)N[C@H](C(=O)N[C@H](C(=O)N[C@H](C(=O)N[C@@H](CCCCN)C(=O)N[C@@H](Cc1c[nH]c2ccccc12)C(=O)N[C@@H](CCCCN)C(=O)N[C@@H](CCCCN)C(N)=O)[C@@H](C)CC)C(C)C)C(C)C [KKWKIVVIKWKK]

From DBAASP
